# Target: T1, human adenosine A1 receptor (Homo sapiens, UniProt P30542)
# T1 construct: expressed in transfected cells; host or cells: HEK293 cells infected with BacMam (the same paragraph also labels the preparation CHO-hA1)
# T1 sequence (P30542 1-326): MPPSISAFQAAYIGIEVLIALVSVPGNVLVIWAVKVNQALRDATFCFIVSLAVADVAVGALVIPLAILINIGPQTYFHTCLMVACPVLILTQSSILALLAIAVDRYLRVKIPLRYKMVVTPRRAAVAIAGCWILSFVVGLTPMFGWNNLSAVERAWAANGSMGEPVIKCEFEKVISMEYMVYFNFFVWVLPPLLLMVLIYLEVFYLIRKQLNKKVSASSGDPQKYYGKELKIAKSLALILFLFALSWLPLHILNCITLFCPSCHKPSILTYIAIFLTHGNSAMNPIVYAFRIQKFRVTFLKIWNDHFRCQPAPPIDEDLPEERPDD
# Assay: Inhibition binding assay, human adenosine A1 receptor membranes, [3H]DPCPX
# Conditions: 1 nM [3H]DPCPX, 25° C., 1 h; IC50 converted to Ki with Cheng-Prusoff; read-out: A1 pKi (converted)
# Experimental: (§1) Inhibition binding assays were performed using 0.2 μg of membranes prepared from HEK293 cells infected with BacMam human adenosine A2A receptor or 1.4 μg of membranes prepared from HEK293 cells infected with BacMam human adenosine A1 receptor. Membranes were incubated in 50 mM Tris-HCl (HEK293-hA2A; pH 7.4) or 50 mM Tris-HCl, 100 mM NaCl, 10 mM MgCl2 (CHO-hA1; pH 7.4) in the presence of varying concentrations of test compound and 1 nM [^3H]ZM241385 (HEK293-hA2A) or [^3H]DPCPX (CHO-hA1) at 25° C. for 1 h. The assay was then terminated by rapid filtration onto GF/B grade Unifilter plates using a TomTec cell harvester, followed by 5×0.5 ml washes with ddH2O. Nonspecific binding was defined in the presence of 1 μM CGS15943 (HEK293-hA2A) or 1 μM DPCPX (CHO-hA1). Bound radioactivity was determined by liquid scintillation counting and inhibition curves were analysed using a four-parameter logistic equation. IC50 values were converted to Ki values with the Cheng-Prusoff equation using a KD value derived from saturation binding studies.
row,Ki [nM],Compound
1,1000,"CCC(c1ccc(F)cn1)n1nc2c(-c3cc(C)nc(C)c3)c(-c3ccccc3)nc(N)n2c1=O (racemic) [Example 1-38, 5-amino-8-(2,6-dimethyl-4-pyridyl)-2-[1-(5-fluoro-2-pyridyl)propyl]-7-phenyl-[1,2,4]triazolo[4,3-c]pyrimidin-3-one]"
2,501,"CCC(c1ccc(F)cn1)n1nc2c(-c3cc(C)nc(C)c3)c(-c3ccccc3)nc(N)n2c1=O (single isomer, unassigned) [1-38 iso-1, 5-amino-8-(2,6-dimethyl-4-pyridyl)-2-[1-(5-fluoro-2-pyridyl)propyl]-7-phenyl-[1,2,4]triazolo[4,3-c]pyrimidin-3-one]"

# Target: T2, human adenosine A2A receptor (Homo sapiens, UniProt P29274)
# T2 construct: expressed in transfected cells; host or cells: HEK293 cells infected with BacMam
# T2 sequence (P29274 whole entry): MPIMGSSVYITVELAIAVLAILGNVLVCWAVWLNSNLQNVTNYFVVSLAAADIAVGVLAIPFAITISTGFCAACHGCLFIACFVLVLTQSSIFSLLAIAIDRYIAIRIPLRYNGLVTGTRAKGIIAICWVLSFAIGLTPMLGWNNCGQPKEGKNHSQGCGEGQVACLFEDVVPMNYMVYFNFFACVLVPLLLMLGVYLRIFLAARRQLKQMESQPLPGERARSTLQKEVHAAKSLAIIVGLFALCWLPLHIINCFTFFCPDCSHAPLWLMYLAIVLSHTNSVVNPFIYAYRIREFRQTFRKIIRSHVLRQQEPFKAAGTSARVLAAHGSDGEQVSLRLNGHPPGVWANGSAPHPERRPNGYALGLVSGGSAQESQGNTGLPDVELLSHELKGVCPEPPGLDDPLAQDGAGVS
# Assay: Inhibition binding assay, human adenosine A2A receptor membranes, [3H]ZM241385
# Conditions: 1 nM [3H]ZM241385, HEK293-hA2A membranes, 25° C., 1 h; IC50 converted to Ki with Cheng-Prusoff; read-out: A2A pKi (converted)
# Experimental: as §1
row,Ki [nM],Compound
1,100,"CCC(c1ccc(F)cn1)n1nc2c(-c3cc(C)nc(C)c3)c(-c3ccccc3)nc(N)n2c1=O (racemic) [Example 1-38, 5-amino-8-(2,6-dimethyl-4-pyridyl)-2-[1-(5-fluoro-2-pyridyl)propyl]-7-phenyl-[1,2,4]triazolo[4,3-c]pyrimidin-3-one]"
2,63.1,"CCC(c1ccc(F)cn1)n1nc2c(-c3cc(C)nc(C)c3)c(-c3ccccc3)nc(N)n2c1=O (single isomer, unassigned) [1-38 iso-1, 5-amino-8-(2,6-dimethyl-4-pyridyl)-2-[1-(5-fluoro-2-pyridyl)propyl]-7-phenyl-[1,2,4]triazolo[4,3-c]pyrimidin-3-one]"
3,158,"Cc1cc(-c2c(-c3ccccc3)nc(N)n3c(=O)n(Cc4ccc(C#N)cn4)nc23)cc(CO)n1 [Example 1-54, 6-[[5-amino-8-[2-(hydroxymethyl)-6-methyl-4-pyridyl]-3-oxo-7-phenyl-[1,2,4]triazolo[4,3-c]pyrimidin-2-yl]methyl]pyridine-3-carbonitrile]"
4,1.58,"Cc1cc(-c2c(-c3ccc(F)cc3)nc(N)n3c(=O)n(Cc4ccc(F)cn4)nc23)cc(CO)n1 [Example 1-59, 5-amino-7-(4-fluorophenyl)-2-[(5-fluoro-2-pyridyl)methyl]-8-[2-(hydroxymethyl)-6-methyl-4-pyridyl]-[1,2,4]triazolo[4,3-c]pyrimidin-3-one]"
5,0.794,"COc1cc(-c2c(-c3ccc(F)cc3)nc(N)n3c(=O)n(Cc4ccc(C)cn4)nc23)cc(CO)n1 [Example 1-67, 5-amino-7-(4-fluorophenyl)-8-[2-(hydroxymethyl)-6-methoxy-4-pyridyl]-2-[(5-methyl-2-pyridyl)methyl]-[1,2,4]triazolo[4,3-c]pyrimidin-3-one]"
6,39.8,"Cc1cc(-c2c(-c3ccccc3)nc(N)n3c(=O)n(CCN(C)C4(CO)CCc5ccccc5C4)nc23)cc(C)n1 (stereo not drawn) [Example 1-99, 5-amino-8-(2,6-dimethyl-4-pyridyl)-2-[2-[[2-(hydroxymethyl)tetralin-2-yl]-methyl-amino]ethyl]-7-phenyl-[1,2,4]triazolo[4,3-c]pyrimidin-3-one]"
7,50.1,"Cc1cc(-c2c(-c3ccccc3)nc(N)n3c(=O)n(C(C)C)nc23)cc(C)n1 [Example 2-4, 5-amino-8-(2,6-dimethyl-4-pyridyl)-2-isopropyl-7-phenyl-[1,2,4]triazolo[4,3-c]pyrimidin-3-one]"
8,20,"CCNC(=O)OCCn1nc2c(-c3cc(C)nc(C)c3)c(-c3ccccc3)nc(N)n2c1=O [Example 2-16, 2-[5-amino-8-(2,6-dimethyl-4-pyridyl)-3-oxo-7-phenyl-[1,2,4]triazolo[4,3-c]pyrimidin-2-yl]ethyl N-ethylcarbamate]"
9,25.1,"Cc1cc(-c2c(-c3ccccc3)nc(N)n3c(=O)n(CCC(N)=O)nc23)cc(C)n1 [Example 2-31, 3-[5-amino-8-(2,6-dimethyl-4-pyridyl)-3-oxo-7-phenyl-[1,2,4]triazolo[4,3-c]pyrimidin-2-yl]propanamide]"
10,31.6,"Cc1cnn(-c2nc(N)n3c(=O)n(CCC(F)(F)F)nc3c2-c2cc(C)nc(C)c2)c1 [Example 2-41, 5-amino-8-(2,6-dimethyl-4-pyridyl)-7-(4-methylpyrazol-1-yl)-2-(3,3,3-trifluoropropyl)-[1,2,4]triazolo[4,3-c]pyrimidin-3-one]"
11,1,"Cc1cc(-c2c(-c3ccco3)nc(N)n3c(=O)n(CCC(F)(F)F)nc23)cc(C)n1 [Example 2-42, 5-amino-8-(2,6-dimethyl-4-pyridyl)-7-(2-furyl)-2-(3,3,3-trifluoropropyl)-[1,2,4]triazolo[4,3-c]pyrimidin-3-one]"
12,31.6,"Cc1cc(-c2c(-c3ccccc3)nc(N)n3c(=O)n(C[C@@H]4CNCCO4)nc23)cc(C)n1 [Example 2-71, (S)-5-amino-8-(2,6-dimethylpyridin-4-yl)-2-(morpholin-2-ylmethyl)-7-phenyl-[1,2,4]triazolo[4,3-c]pyrimidin-3(2H)-one]"
13,15.8,"Cc1cc(-c2c(-c3ccccc3)nc(N)n3c(=O)n(C[C@H]4CN(C)CCO4)nc23)cc(C)n1 [Example 2-74, 5-amino-8-(2,6-dimethyl-4-pyridyl)-2-[[(2R)-4-methylmorpholin-2-yl]methyl]-7-phenyl-[1,2,4]triazolo[4,3-c]pyrimidin-3-one]"
14,100,"Cc1cc(-c2c(-c3ccccc3)nc(N)n3c(=O)n(C[C@H]4COCCN4C(=O)OC(C)(C)C)nc23)cc(C)n1 [Example 2-75, tert-butyl (3S)-3-[[5-amino-8-(2,6-dimethyl-4-pyridyl)-3-oxo-7-phenyl-[1,2,4]triazolo[4,3-c]pyrimidin-2-yl]methyl]morpholine-4-carboxylate]"
15,7.94,"Cc1cc(-c2c(-c3ccccc3)nc(N)n3c(=O)n(C[C@H]4CN(C)CCN4C)nc23)cc(C)n1 [Example 2-85, (R)-5-amino-2-((1,4-dimethylpiperazin-2-yl)methyl)-8-(2,6-dimethylpyridin-4-yl)-7-phenyl-[1,2,4]triazolo[4,3-c]pyrimidin-3(2H)-one]"
16,25.1,"Cc1cc(-c2c(-c3ccccc3)nc(N)n3c(=O)n(C[C@H]4CNCCN4C)nc23)cc(C)n1 [Example 2-86, 5-amino-8-(2,6-dimethyl-4-pyridyl)-2-[[(2R)-1-methylpiperazin-2-yl]methyl]-7-phenyl-[1,2,4]triazolo[4,3-c]pyrimidin-3-one]"
17,100,"Cc1cc(-c2c(-c3ccccc3)nc(N)n3c(=O)n(C[C@@H]4CN(C)CCN4C)nc23)cc(C)n1 [Example 2-87, (S)-5-amino-2-((1,4-dimethylpiperazin-2-yl)methyl)-8-(2,6-dimethylpyridin-4-yl)-7-phenyl-[1,2,4]triazolo[4,3-c]pyrimidin-3(2H)-one]"
18,79.4,"Cc1cc(-c2c(-c3ccccc3)nc(N)n3c(=O)n(C[C@@H]4CNCCN4C)nc23)cc(C)n1 [Example 2-88, 5-amino-8-(2,6-dimethyl-4-pyridyl)-2-[[(2S)-1-methylpiperazin-2-yl]methyl]-7-phenyl-[1,2,4]triazolo[4,3-c]pyrimidin-3-one]"
19,31.6,"Cc1cc(-c2c(-c3ccc(F)cc3)nc(N)n3c(=O)n(CC4CCCN=N4)nc23)cc(CO)n1 (stereo not drawn) [Example 2-93, 5-amino-7-(4-fluorophenyl)-8-[2-(hydroxymethyl)-6-methyl-4-pyridyl]-2-(3,4,5,6-tetrahydropyridazin-3-ylmethyl)-[1,2,4]triazolo[4,3-c]pyrimidin-3-one]"
20,6.31,"Cc1cc(-c2c(-c3ccccc3)nc(N)n3c(=O)n(CCN4CCC5CC54)nc23)cc(C)n1 (stereo not drawn) [Example 2-95, 2-(2-(2-azabicyclo[3.1.0]hexan-2-yl)ethyl)-5-amino-8-(2,6-dimethylpyridin-4-yl)-7-phenyl-[1,2,4]triazolo[4,3-c]pyrimidin-3(2H)-one]"
21,15.8,"Cc1cc(-c2c(-c3ccccc3)nc(N)n3c(=O)n(CCN4CCCCC4)nc23)cc(C)n1 [Example 2-96, 5-amino-8-(2,6-dimethyl-4-pyridyl)-7-phenyl-2-[2-(1-piperidyl)ethyl]-[1,2,4]triazolo[4,3-c]pyrimidin-3-one]"
22,20,"Cc1cc(-c2c(-c3ccccc3)nc(N)n3c(=O)n(CCN4CCCC(C)C4)nc23)cc(C)n1 (stereo not drawn) [Example 2-98, 5-amino-8-(2,6-dimethyl-4-pyridyl)-2-[2-(3-methyl-1-piperidyl)ethyl]-7-phenyl-[1,2,4]triazolo[4,3-c]pyrimidin-3-one]"
23,100,"COC(=O)N1CCCC(NCCn2nc3c(-c4cc(C)nc(C)c4)c(-c4ccccc4)nc(N)n3c2=O)C1 (stereo not drawn) [Example 2-106, methyl 3-[2-[5-amino-8-(2,6-dimethyl-4-pyridyl)-3-oxo-7-phenyl-[1,2,4]triazolo[4,3-c]pyrimidin-2-yl]ethylamino]piperidine-1-carboxylate]"
24,126,"Cc1cc(-c2c(-c3ccccc3)nc(N)n3c(=O)n(CCC4CCN(CCC(=O)O)CC4)nc23)cc(C)n1 [Example 2-110, 3-[4-[2-[5-amino-8-(2,6-dimethyl-4-pyridyl)-3-oxo-7-phenyl-[1,2,4]triazolo[4,3-c]pyrimidin-2-yl]ethyl]-1-piperidyl]propanoic acid]"
25,25.1,"CNC(=O)CCn1nc2c(-c3cc(C)nc(C)c3)c(-c3ccccc3)nc(N)n2c1=O [Example 2-113, 3-(5-amino-8-(2,6-dimethylpyridin-4-yl)-3-oxo-7-phenyl-[1,2,4]triazolo[4,3-c]pyrimidin-2(3H)-yl)-N-methylpropanamide]"

# Reference: patent publication US12528815B2, “5-amino-8-(4-pyridyl)-[1,2,4]triazolo[4,3-c]pyrimidin-3-one compounds for use against cancer” (Nxera Pharma UK Limited, priority 2020, dated 2026)
